Laboratory results as given in patent publication US11491184B2, “Liquids rich in noble gas and methods of their preparation and use” (THE BOARD OF REGENTS OF THE UNIVERSITY OF TEXAS SYSTEM, priority 2013, dated 2022).
Converted amounts (≈) assume the structure as drawn.

Key:
[1] = cited from earlier work; for concentration dissolved in water: standard temperature and pressure
[2] = tested on: apolipoprotein-E (Apo E) knockout (KO) mice; assay: Echocardiographic measurements after oral Xe-rich solution, Apo E KO mice on high fat diet; assay type: in vivo
Source text: (§1) All animal studies were approved by the Animal Welfare Committee at The University of Texas Health Science Center at Houston. C57BL/6J wild type (WT) and apolipoprotein-E (Apo E) knockout (KO) mice were purchased from Jackson Laboratory (Bar Harbor, Me., USA), see, e.g., Meir et al., 2004, incorporated herein by reference. The control WT mice used were C57BL/6J, which share the same genetic background with the Apo E KO mice. Six- to eight-month-old male WT and KO mice were fed control or high fat diet (Harlan Laboratories, USA) and administered control or Xe-rich solution (200 μl, once a day) and water drink for 6 weeks, since the Apo E KO mice type fed a high fat diet develop atherosclerotic lesions.
(§2) Baseline measurements by echocardiography were obtained before feeding with the high fat diet. Cardiac morphology and function were assessed by serial M-mode echocardiography using a Vevo 770 Imaging System (VisualSonics Inc., Ontario, Canada) equipped with a 30 MHz microprobe. M-mode ventricular measurements were taken at 6-weeks after the feeding. Electrocardiographic (ECG) data was obtained. Echo data (HR, heart rate; LVID, left ventricular internal dimension; IVS, intra-ventricular septum; LVPW, left ventricular posterior wall; FS, fractional shortening; SV, stroke volume; EF, ejection fraction; CO, cardiac output; LV Vol, LV volume; LV mass corrected) were analyzed with the analysis software (VisualSonics Inc., Ontario, Canada).
(§3) Animals were divided into 5 groups (see experiment setting). Echocardiography was used to assess cardiac dimensions and function at baseline, and at 6-weeks following the Xe exposure (FIGS. 1 and 2; Table 1). Cardiac size of WT and KO hearts were determined with LV mass (corrected) and normalized to body weight (mg/g) following 6-weeks of the Xe exposure (FIG. 3A).

[3] = Measurement of Xe dissolved / encapsulated in water and hp-beta-CD; assay type: physicochemical; settings: 3 atm
Experimental: Xenon was enclosed into a soluble caged molecules (e.g., cyclodextrin). To remove possible residue molecules from cage, the caged molecular was baked at 40-80° C. under vacuum for overnight. To enclose xenon into caged molecules, xenon was incubated with caged molecular in a sealed vial under 2-10 atm pressure at […]. for overnight to 3 days.
Pure water was degassed under 20-80 mbar vacuum at room temperature for overnight. Xenon (99.999% Medical grade, Matheson Tri-Gas®, Houston, Tex., USA) was re-dissolved into degassed water by pressure water with 2-10 atm xenon gas at 4° C. for overnight to 3 days.
Xe-rich-water is composed of Xe directly dissolved in water and caging with hydroxypropyl-beta-cyclodextrin (hp-beta-CD) in water. […]
To measure the amount of Xe dissolved in a Xe-rich-water. […] The solution was then warmed up to 80° C. in a vial with a silicone-rubber seal (Thermo Scientific SepraSeal® (Thermo Scientific, Hudson, N.H., USA) sealed top for 2 hours. After cooling down to room temperature, a syringe with a 17 gauge needle was inserted into a vial through the silicone-rubber seal. The released Xe gas present in the top spacer formed pressure, which pushed Xe gas into the syringe. The amount of Xe released into syringe was then measured.

[4] = Stated solubility / dissolved concentration of gases and hp-beta-CD; assay type: physicochemical; settings: room temperature and 1 atm
[5] = tested on: apolipoprotein-E (Apo E) knockout (KO) mice; assay: Heart weight normalized to body weight after Xe-rich solution; assay type: in vivo; settings: KO6w Xe vs KO6w vehicle, 6 weeks
Source text: as §1, §3

[6] = tested on: Brain-derived Neurotrophic Factor (BDNF); assay: BDNF Sandwich ELISA of heart and brain after Xe-rich solution; assay type: in vivo, mice; settings: KO6w Xe vs vehicle, 6 weeks
Source text: All animal studies were approved by the Animal Welfare Committee at The University of Texas Health Science Center at Houston. C57BL/6J wild type (WT) and apolipoprotein-E (Apo E) knockout (KO) mice were purchased from Jackson Laboratory (Bar Harbor, Me., USA), see, e.g., Meir et al., 2004, incorporated herein by reference. The control WT mice used were C57BL/6J, which share the same genetic background with the Apo E KO mice. […]
Fresh frozen heart and brain tissues were slightly thawed on crushed ice to allow dissection of the hearts and brains. […] The protein concentration was determined using a Bradford Protein Assay (Bio-Rad, Calif., USA).
Except for the heart and brain extracts, the samples (such as plasma) were thawed and clarified at 12,000 rpm for 10 min at 4° C. prior to ELISA assays for β-amyloid per the manufacturer's instructions. BDNF and β-amyloid peptide (Aβ1-40) content were determined by using BDNF Sandwich ELISA Kit (Millipore Corporation, MA, USA) and a Mouse/Rat Amyloid β (1-40) High Specific ELISA Assay Kit (IBLAmerican, Minneapolis, Minn., USA). […] was measured by using SpectroMax Microplate reader (Bio-Tek Instruments) at 450 nm. All samples were analyzed in duplicate.

[7] = tested on: apolipoprotein-E (Apo E) knockout (KO) mice; assay: Electrocardiographic (ECG) data after Xe-rich solution; assay type: in vivo; settings: KO6w treated with Xe, 6-weeks time point
Source text: as §1
as §2, with “M-mode ventricular measurements were taken at 6-weeks after the feeding. Electrocardiographic (ECG) data was obtained.” left out

[8] = chronic oral administration; cited from earlier work
[9] = KO6w Xe vs KO6w vehicle, 6 week time point

Which “concentration dissolved in water” value [1] does the source give for `[Ar]` [Ar, Argon] here?
Its value is “about 55 μg/ml”.

Which “increase in LV mass (corrected)” value ([2]; KO6w Xe vs KO6w vehicle and KO6w control, 6 weeks, Xe-rich solution 200 μl once a day) does the source give for `[Xe]` [Xe, Xenon] here?
Its value is “blocked”.

What about the “wall thickness increase (IVS, LVPW)” value ([2]; KO6w Xe vs KO6w vehicle and KO6w/control, 6 weeks) of the same molecule?
Its value is “significantly blocked”.

And the “decrease in LV ejection fraction (EF)” value [2, 9]?
The value was “significantly blocked”.

What about the “decrease in LV fractional shortening (FS)” value [2, 9] of the same molecule?
Its value is “significantly blocked”.

What about the “decrease in cardiac output (CO)” value [2, 9] of the same molecule?
Its value is “significantly blocked”.

And the “heart rate (HR) increase, in words” value ([2]; KO6w given Xe, 6 weeks)?
The value was “blocked”.

What about the “xenon encapsulated in a hp-beta-CD cage” value ([3]; −80° C., 0.5 mg/ml of hp-beta-CD) of the same molecule?
Its value is 5 mL.

And the “xenon gas dissolved into 5 ml water” value ([3]; degassed water, pure xenon gas, 4° C., 4 hours to overnight)?
The value was 6.5 mL.

What about the “Xe in an oil, such as olive oil” value [4] of the same molecule?
Its value is “about 12 mg Xe/ml”.

What about the “heart weight normalized to body weight” value [5] of the same molecule?
Its value is “Decreased”.

What about the “relative BDNF levels in heart” value [6] of the same molecule?
Its value is “further increased”.

And the “concentration dissolved in water” value [1]?
Its value is “about 600 μg/ml”.

What about the “ECG changes in T wave, ST segment and QRS complex (myocardial ischemia)” value [7] of the same molecule?
Its value is “did not occur”.

Which Solubility [1] does the source give for `CC(O)COC[C@H]1O[C@@H]2O[C@H]3[C@H](O)[C@@H](O)[C@@H](O[C@H]4[C@H](O)[C@@H](O)[C@@H](O[C@H]5[C@H](O)[C@@H](O)[C@@H](O[C@H]6[C@H](O)[C@@H](O)[C@@H](O[C@H]7[C@H](O)[C@@H](O)[C@@H](O[C@H]8[C@H](O)[C@@H](O)[C@@H](O[C@H]1[C@H](O)[C@H]2O)O[C@@H]8COCC(C)O)O[C@@H]7COCC(C)O)O[C@@H]6COCC(C)O)O[C@@H]5COCC(C)O)O[C@@H]4COCC(C)O)O[C@@H]3COCC(C)O` (stereo partly drawn) [hp-beta-CD, Hydroxypropyl-beta-cyclodextrin] here?
Its Solubility is 330 mg/mL (≈ 214 mM).

With cyclodextrin as the molecule, how does the acceptably safe dose [8] read?
The acceptably safe dose was “about 1,000 mg/kg/day”.
